Reference: patent US10118930B2, “Piperidinylpyrazolopyrimidinones and their use” (BAYER PHARMA AKTIENGESELLSCHAFT, priority 2015, dated 2018)
Counter-ions that a name gives are not always drawn.

Each compound was assayed on clot lysis (fibrinolysis) in diluted human citrated plasma, tPA-induced (assay: Plasma-based clot lysis assay (5%)). Conditions: human citrated platelet-poor plasma 5%, fibrinogen 3 μM, CaCl2 10 mM, tPA 0.2 nM, 37° C., OD at 405 nm.
Type: biochemical
Summary of the method: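 Clot formation and breakdown triggered by CaCl2 (10 mM final) plus tPA (0.2 nM final) at 37° C, in 5% diluted human plasma supplemented with 3 μM fibrinogen (HEPES/NaCl/Brij buffer, pH 7). IC50 obtained from time courses relative to a blank control.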
`O=c1cc(C2CCNCC2)n2ncc(-c3nnc(C4CCCCC4)o3)c2[nH]1` [Example 293, 3-(5-cyclohexyl-1,3,4-oxadiazol-2-yl)-7-(piperidin-4-yl)pyrazolo[1,5-a]pyrimidin-5 (4H)-one hydrochloride] showed an IC50 of 31 nM.
In the case of `Cc1ccc(-c2noc(-c3cnn4c(C5CCNCC5)cc(=O)[nH]c34)n2)c(C(F)(F)F)c1` [Example 128, 3-{3-[4-Methyl-2-(trifluoromethyl)phenyl]-1,2,4-oxadiazol-5-yl}-7-(piperidin-4-yl)pyrazolo[1,5-a]pyrimidin-5(4H)-one hydrochloride], the IC50 is reported as 110 nM.
Compound `O=c1cc(C2CCNCC2)n2ncc(-c3noc(-c4ccc(C(F)(F)F)cc4Cl)n3)c2[nH]1` [Example 232, 3-{5-[2-chloro-4-(trifluoromethyl)phenyl]-1,2,4-oxadiazol-3-yl}-7-(piperidin-4-yl)pyrazolo[1,5-a]pyrimidin-5(4H)-one hydrochloride] has an IC50 of 71 nM.
`CC(C)(C)CC1CC(c2cc(=O)[nH]c3c(-c4nc(C(C)(C)C)no4)cnn23)CCN1` (stereo not shown) [Example 303, 3-(3-tert-butyl-1,2,4-oxadiazol-5-yl)-7-[2-(2,2-dimethylpropyl)piperidin-4-yl]pyrazolo[1,5-a]pyrimidin-5(4H)-one hydrochloride] showed an IC50 of 38 nM.
In the case of `Cc1noc(-c2c(C)nn3c(C4CCNCC4)cc(=O)[nH]c23)n1` [Example 339, 2-methyl-3-(3-methyl-1,2,4-oxadiazol-5-yl)-7-(piperidin-4-yl)pyrazolo[1,5-a]pyrimidin-5(4H)-one hydrochloride], the IC50 is reported as 28 nM.
`O=c1cc(C2CCNCC2)n2ncc(-c3noc(C4CCC(F)(F)CC4)n3)c2[nH]1` [Example 393, 3-(5-(4,4-difluorocyclohexyl)-1,2,4-oxadiazol-3-yl)-7-(piperidin-4-yl)pyrazolo[1,5-a]pyrimidin-5(4H)-one hydrochloride] was tested, and the IC50 was 30 nM.
`CN(Cc1ccccc1)C(=O)c1cnn2c(C3CCNCC3)cc(=O)[nH]c12` [Example 97, N-benzyl-N-methyl-5-oxo-7-(piperidin-4-yl)-4,5-dihydropyrazolo[1,5-a]pyrimidine-3-carboxamide hydrochloride] showed an IC50 of 24 nM.
Compound `Cc1nn2c(C3CCNCC3)cc(=O)[nH]c2c1-c1nc(C(C)(C)C)no1` [Example 296, 3-(3-tert-butyl-1,2,4-oxadiazol-5-yl)-2-methyl-7-(piperidin-4-yl)pyrazolo[1,5-a]pyrimidin-5(4H)-one hydrochloride] has an IC50 of 23 nM.
Work on `CCCN(CC)C(=O)c1cnn2c(C3CCNCC3)cc(=O)[nH]c12` [Example 96, N-ethyl-5-oxo-7-(piperidin-4-yl)-N-propyl-4,5-dihydropyrazolo[1,5-a]pyrimidine-3-carboxamide hydrochloride] yielded an IC50 of 33 nM.
Work on `CC1(c2nc(-c3cnn4c(C5CCNCC5)cc(=O)[nH]c34)no2)CC1` (racemic) [Example 381, Rac-3-[5-(1-Methylcyclopropyl)-1,2,4-oxadiazol-3-yl]-7-(piperidin-4-yl)pyrazolo[1,5-a]pyrimidin-5(4H)-one hydrochloride] yielded an IC50 of 29 nM.
With `CCCOC(=O)c1c(C(F)(F)F)nn2c(C3CCNCC3)cc(=O)[nH]c12` [Example 459, Propyl 5-oxo-7-(piperidin-4-yl)-2-(trifluoromethyl)-4,5-dihydropyrazolo[1,5-a]pyrimidine-3-carboxylate hydrochloride] the IC50 was 83 nM.
`O=c1cc(C2CCNCC2)n2ncc(-c3nnc(CN4CCCCC4)o3)c2[nH]1` [Example 291, 7-(piperidin-4-yl)-3-[5-(piperidin-1-ylmethyl)-1,3,4-oxadiazol-2-yl]pyrazolo[1,5-a]pyrimidin-5(4H)-one hydrochloride] gave an IC50 of 85 nM.
Compound `Cc1ccccc1-c1noc(-c2cnn3c(C4CCNCC4)cc(=O)[nH]c23)n1` [Example 119, 3-[3-(2-Methylphenyl)-1,2,4-oxadiazol-5-yl]-7-(piperidin-4-yl)pyrazolo[1,5-a]pyrimidin-5 (4H)-one hydrochloride] has an IC50 of 79 nM.
`COc1ccccc1-c1noc(-c2cnn3c(C4CCNCC4)cc(=O)[nH]c23)n1` [Example 160, 3-[3-(2-methoxyphenyl)-1,2,4-oxadiazol-5-yl]-7-(piperidin-4-yl)pyrazolo[1,5-a]pyrimidin-5(4H)-one hydrochloride] showed an IC50 of 73 nM.
`O=C(NCCN1CCOC1=O)c1cnn2c(C3CCNCC3)cc(=O)[nH]c12` [Example 92, 5-oxo-N-[2-(2-oxo-1,3-oxazolidin-3-yl)ethyl]-7-(piperidin-4-yl)-4,5-dihydropyrazolo[1,5-a]pyrimidine-3-carboxamide hydrochloride] gave an IC50 of 33 nM.
In the case of `Cc1nn2c(C3CCNCC3)cc(=O)[nH]c2c1C(=O)N1CCC2CCCCC2C1` (stereo not shown) [Example 405, 2-methyl-3-(octahydro-isoquinolin-2(1H)-ylcarbonyl)-7-(piperidin-4-yl) pyrazolo[1,5-a] pyrimidin-5(4H)-one hydrochloride], the IC50 is reported as 37 nM.
For `COCCCNC(=O)c1cnn2c(C3CCNCC3)cc(=O)[nH]c12` [Example 88, N-(3-methoxypropyl)-5-oxo-7-(piperidin-4-yl)-4,5-dihydropyrazolo[1,5-a]pyrimidine-3-carboxamide hydrochloride], the IC50 was 49 nM.
`Cc1ccc(-c2noc(-c3cnn4c(C5CCNCC5)cc(=O)[nH]c34)n2)c(Cl)c1` [Example 130, 3-[3-(2-Chloro-4-methylphenyl)-1,2,4-oxadiazol-5-yl]-7-(piperidin-4-yl)pyrazolo[1,5-a]pyrimidin-5(4H)-one hydrochloride] showed an IC50 of 41 nM.
For `CC(=O)c1cnn2c(C3CCNCC3)cc(=O)[nH]c12` [Example 370, 3-acetyl-7-(piperidin-4-yl)pyrazolo[1,5-a]pyrimidin-5(4H)-one hydrochloride], the IC50 was 36 nM.
`Cc1nn2c(C3CCNCC3)cc(=O)[nH]c2c1C(=O)OCC(F)F` [Example 465, 2,2-difluoroethyl 2-methyl-5-oxo-7-(piperidin-4-yl)-4,5-dihydropyrazolo[1,5-a]pyrimidine-3-carboxylate hydrochloride] gave an IC50 of 40 nM.
`Cc1nn2c(C3CCNCC3)cc(=O)[nH]c2c1C(=O)N1CCC(C)CC1` [Example 416, 2-methyl-3-[(4-methyl-piperidin-1-yl)carbonyl]-7-(piperidin-4-yl) pyrazolo[1,5-a] pyrimidin-5(4H)-one hydrochloride] showed an IC50 of 31 nM.
`O=c1cc(C2CCNCC2)n2ncc(-c3nc(-c4ccc(Cl)cc4)no3)c2[nH]1` [Example 157, 3-[3-(4-chlorophenyl)-1,2,4-oxadiazol-5-yl]-7-(piperidin-4-yl)pyrazolo[1,5-a]pyrimidin-5 (4H)-one hydrochloride] gave an IC50 of 56 nM.
`NC(=O)CCNC(=O)c1cnn2c(C3CCNCC3)cc(=O)[nH]c12` [Example 89, N-(3-amino-3-oxopropyl)-5-oxo-7-(piperidin-4-yl)-4,5-dihydropyrazolo[1,5-a]pyrimidine-3-carboxamide hydrochloride] was tested, and the IC50 was 140 nM.
Compound `CCN(C)C(=O)c1c(C)nn2c(C3CCNCC3)cc(=O)[nH]c12` [Example 424, N-ethyl-N,2-dimethyl-5-oxo-7-(piperidin-4-yl)-4,5-dihydro-pyrazolo[1,5-a] pyrimidine-3-carboxamide hydrochloride] has an IC50 of 78 nM.
`O=c1cc(C2CCNCC2)n2nc(C3CC3)cc2[nH]1` [Example 26, 2-Cyclopropyl-7-(piperidin-4-yl)pyrazolo[1,5-a]pyrimidin-5(4H)-one hydrochloride] was tested, and the IC50 was 310 nM.
`O=c1cc(C2CCNCC2)n2ncc(-c3ccc4c(c3)OCCO4)c2[nH]1` [Example 61, 3-(2,3-Dihydro-1,4-benzodioxin-6-yl)-7-(piperidin-4-yl)pyrazolo[1,5-a]pyrimidin-5 (4H)-one hydrochloride] was tested, and the IC50 was 34 nM.
Work on `O=c1cc(C2CCNCC2)n2ncc(-c3nc(-c4cc(F)c(F)cc4F)no3)c2[nH]1` [Example 190, 7-(piperidin-4-yl)-3-[3-(2,4,5-trifluorophenyl)-1,2,4-oxadiazol-5-yl]pyrazolo[1,5-a]pyrimidin-5 (4H)-one hydrochloride] yielded an IC50 of 34 nM.
With `CCc1cnn2c(C3CCNCC3)cc(=O)[nH]c12` [Example 265, 3-ethyl-7-(piperidin-4-yl)pyrazolo[1,5-a]pyrimidin-5(4H)-one hydrochloride] the IC50 was 340 nM.
For `O=C(O)c1c(C(F)(F)F)nn2c(C3CCNCC3)cc(=O)[nH]c12` [Example 457, 5-oxo-7-(piperidin-4-yl)-2-(trifluoromethyl)-4,5-dihydropyrazolo[1,5-a]pyrimidine-3-carboxylic acid hydrochloride], the IC50 was 85 nM.
For `Cc1nn2c(C3CCNCC3)cc(=O)[nH]c2c1C(=O)N(C)Cc1ccccn1` [Example 428, N,2-dimethyl-5-oxo-7-(piperidin-4-yl)-N-(pyridin-2-ylmethyl)-4,5-dihydro-pyrazolo[1,5-a] pyrimidine-3-carboxamide hydrochloride], the IC50 was 29 nM.
Work on `Cc1nn2c(C3CCNCC3)cc(=O)[nH]c2c1-c1nc(-c2ccccc2OC(F)(F)F)no1` [Example 347, 2-methyl-7-(piperidin-4-yl)-3-{3-[2-(trifluoromethoxy)phenyl]-1,2,4-oxadiazol-5-yl}pyrazolo[1,5-a]pyrimidin-5(4H)-one hydrochloride] yielded an IC50 of 28 nM.
Work on `COCc1nc(-c2cnn3c(C4CCNCC4)cc(=O)[nH]c23)no1` [Example 394, 3-(5-(methoxymethyl)-1,2,4-oxadiazol-3-yl)-7-(piperidin-4-yl)pyrazolo[1,5-a]pyrimidin-5(4H)-one hydrochloride] yielded an IC50 of 29 nM.
In the case of `C[C@H]1C[C@H](c2cc(=O)[nH]c3c(C#N)cnn23)CCN1` [Example 65, (−)-trans-7-(2-Methylpiperidin-4-yl)-5-oxo-4,5-dihydropyrazolo[1,5-a]pyrimidine-3-carbonitrile trifluoroacetate], the IC50 is reported as 12 nM.
`O=C(OC1CCC1)c1cnn2c(C3CCNCC3)cc(=O)[nH]c12` [Example 356, Cyclobutyl 5-oxo-7-(piperidin-4-yl)-4,5-dihydropyrazolo[1,5-a]pyrimidine-3-carboxylate hydrochloride] showed an IC50 of 23 nM.
